Laboratory results from patent US20240059728A1, “NOVEL GALACTOSIDE INHIBITOR OF GALECTINS” (GALECTO BIOTECH AB, priority 2021, published 2024).

Experiments:
[1] = molecular target: Galectin-1 (Homo sapiens (Human), UniProt P09382); experiment: fluorescence anisotropy assay, galectin-1; assay type: binding; settings: inhibition of the interaction between galectin and a fluorescein tagged saccharide probe
Method: (§1) The affinity of Example 1-14 for galectins were determined by a fluorescence anisotropy assay where the compound was used as an inhibitor of the interaction between galectin and a fluorescein tagged saccharide probe as described Sörme, P., Kahl-Knutsson, B., Huflejt, M., Nilsson, U. J., and Leffler H. (2004) Fluorescence polarization as an analytical tool to evaluate galectin-ligand interactions. Anal. Biochem. 334: 36-47, (Sarme et al., 2004) and Monovalent interactions of Galectin-1 By Salomonsson, Emma; Larumbe, Amaia; Tejler, Johan; Tullberg, Erik; Rydberg, Hanna; Sundin, Anders; Khabut, Areej; Frejd, Torbjorn; Lobsanov, Yuri D.; Rini, James M.; et al, From Biochemistry (2010), 49(44), 9518-9532, (Salomonsson et al., 2010).

[2] = molecular target: Galectin-3 (Homo sapiens (Human), UniProt P17931); experiment: fluorescence anisotropy assay, galectin-3; assay type: binding; settings: inhibition of the interaction between galectin and a fluorescein tagged saccharide probe
Sequence of Galectin-3 (P17931 whole entry): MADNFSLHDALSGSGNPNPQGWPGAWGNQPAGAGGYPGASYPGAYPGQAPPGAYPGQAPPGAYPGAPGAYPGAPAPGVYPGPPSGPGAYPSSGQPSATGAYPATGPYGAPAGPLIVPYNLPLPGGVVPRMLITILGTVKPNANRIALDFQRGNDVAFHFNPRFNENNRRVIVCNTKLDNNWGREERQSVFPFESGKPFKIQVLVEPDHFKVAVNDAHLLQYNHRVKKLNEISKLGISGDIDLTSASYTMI
Method: as §1

Sequence of Galectin-1 (P09382 whole entry): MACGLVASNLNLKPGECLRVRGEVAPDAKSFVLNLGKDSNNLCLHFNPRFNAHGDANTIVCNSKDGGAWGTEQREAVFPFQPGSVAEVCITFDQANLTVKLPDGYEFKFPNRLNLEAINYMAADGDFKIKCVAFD

Kd [1] | Kd [2] | SMILES
450 nM | 12 nM | OCC1O[C@@H](S[C@@H]2O[C@H](CO)C(O)C(n3cc(-c4ccc(Cl)c(F)c4F)nn3)[C@H]2O)C(O)[C@@H](n2cc(-c3ccc(Cl)c(F)c3F)nn2)[C@H]1O (stereo partly drawn) [Example 14, 1,1′-Sulfanediyl-bis-{3-[4-(4-chloro-2,3-difluorophenyl)-1H-1,2,3-triazol-1-yl]-3-deoxy-β-D-galactopyranoside}]
4 nM | 0.3 nM | OCC1O[C@@H](S[C@@H]2O[C@H](CO)C(O)C(n3cc(-c4csc(O)n4)nn3)[C@H]2O)C(O)[C@@H](n2cc(-c3cc(F)c(Cl)c(F)c3)nn2)[C@H]1O (stereo partly drawn) [Example 2, 3-[4-(4-Chloro-3,5-difluorophenyl)-1H-1,2,3-triazol-1-yl]-3,3′-dideoxy-3′-[4-(2-hydroxythiazol-4-yl)-1H-1,2,3-triazol-1-yl]-1,1′-sulfanediyl-di-β-D-galactopyranoside]
3 nM | 0.4 nM | OCC1O[C@@H](S[C@@H]2O[C@H](CO)C(O)C(n3cc(-c4csc(O)n4)nn3)[C@H]2O)C(O)[C@@H](n2cc(-c3cc(F)c(F)c(F)c3)nn2)[C@H]1O (stereo partly drawn) [Example 1, 3,3′-Dideoxy-3-[4-(3,4,5-trifluorophenyl)-1H-1,2,3-triazol-1-yl]-3′-[4-(2-hydroxythiazol-4-yl)-1H-1,2,3-triazol-1-yl]-1,1′-sulfanediyl-di-β-D-galactopyranoside]
9 nM | 1 nM | Nc1nc(-c2cn(C3C(O)[C@@H](CO)O[C@@H](S[C@@H]4OC(CO)[C@H](O)[C@H](n5cc(-c6cc(F)c(Cl)c(F)c6)nn5)C4O)[C@@H]3O)nn2)cs1 (stereo partly drawn) [Example 3, 3′-[4-(2-Aminothiazol-4-yl)-1H-1,2,3-triazol-1-yl]-3-[4-(4-chloro-3,5-difluorophenyl)-1H-1,2,3-triazol-1-yl]-3,3′-dideoxy-1,1′-sulfanediyl-di-β-D-galactopyranoside]
